Source: US20190276389A1, “SYNTHESIS OF ARYL CYCLOHEXANE ESTER DERIVATIVES USEFUL AS SENSATES IN CONSUMER PRODUCTS” (The Procter & Gamble Company, priority 2015, published 2019)

Assays:
human TRPM8 [1] = assay: TRPM8 Protocol-FLIPR Assay (intracellular Ca2+ in HEK-293 cells stably transfected with human TRPM8); assay type: cell-based; conditions: HEK-293 cells stably transfected with human TRPM8, Fluo-4 AM, read-out: TRPM8 EC 50 Value
Method: (§1) Trypsin was inactivated by addition of 8 ml growth medium. Cells were transferred to a 50 ml tube and centrifuged at 850 rpm for 3 minutes to remove medium. After centrifugation, a pellet of cells was formed in the bottom of the tube separating them from the supernatant solution. […] Fluo-4 AM is a fluorescent dye used for quantifying cellular Ca^2+ concentrations in the 100 nM to 1 microM range. At the end of 30 minutes, 45 ml of assay buffer (1×BSS (Hank's Balanced Salt Solution), 20 mM HEPES (4-(2-Hydroxyethyl)-1-piperazineethanesulfonic acid)) was added to wash cells and the resulting mixture was then centrifuged at 850 rpm for 3 minutes to remove excess buffer and Fluo-4 AM calcium indicator.
(§2) The pelleted cells were re-suspended in 10 ml assay buffer and 90 μl aliquots (˜50,000 cells) per well delivered to a 96-well assay plate containing 10 μl of test compounds (1 mM in assay buffer, final concentration 100 μM) or buffer control and incubated at room temperature for 30 minutes. After 30 minutes, a plate was placed into a fluorometric imaging plate reader (FLIPR384 from Molecular Devices, Sunnyvale, Calif.) and basal fluorescence recorded (excitation wave length 488 nm and emission wave length 510 nm). Then 20 μl of […] of TRPM8 agonist WS5 coolant in the assay buffer was added and fluorescence recorded. For determining the direct effect of test compounds on TRPM8, fluorescence was measured immediately after addition of each compound (TABLE 1).

[2] = concentration where the cooling effect could be clearly recognized; cited from earlier work
[3] = Sensory evaluation of cooling intensity after brushing with dentifrice; assay type: in vivo; conditions: avg 7 panelists, dentifrice with 0.001% (10 ppm) coolant
Method: Dentifrices were prepared using conventional methods, such as the protocols described in U.S. Pat. No. 8,747,814, which contained no coolant (SAMPLE A—Crest Cavity Protection) or having a coolant from TABLE 1 (SAMPLE B), in a flavor (wintergreen) at 10 parts per million (ppm).
Sensory evaluation studies of coolant activity were conducted using a methodology patterned after the techniques described in M. C. Meilgaard, et al., Sensory Evaluation Techniques, 4th Ed. (2007). Seven panelists brushed with a dentifrice from TABLE 2, having no coolant (SAMPLE A) or having a coolant from TABLE 1 (SAMPLE B), for two minutes, in a flavor (wintergreen) at 10 parts per million (ppm). After brush expectoration, panelists then rinsed their mouth with 15 ml of an aqueous rinse and expectorated.

human TRPM8 [4] = target: human TRPM8 (UniProt Q8R4D5); assay: TRPM8 Protocol-FLIPR Assay (intracellular Ca2+ in HEK-293 cells stably transfected with human TRPM8); assay type: cell-based; conditions: HEK-293 cells stably transfected with human TRPM8, Fluo-4 AM
Method: as §1, §2

EC50 (human TRPM8 [1]) | Structure (SMILES) | other results
882 nM | CC(C)[C@H]1CC[C@H](C)C[C@@H]1OC(=O)C[C@@H](NC(=O)CN)c1ccccc1 [#13] | 
2260 nM | CC(C)[C@@H]1CC[C@@H](C)C[C@H]1C(=O)OC[C@H](NC(=O)CN)c1ccccc1 [#17] | 
19000 nM | CC(C)[C@@H]1CC[C@@H](C)CC1OC(=O)c1ccccc1NC(=O)CN (some centres unmarked) [#34] | 
1960 nM | CC(C)[C@@H]1CC[C@@H](C)C[C@H]1OC(=O)CC(NCCN)c1ccccc1 (some centres unmarked) [#15] | 
 | CC(C)[C@@H]1CC[C@@H](C)C[C@@H]1O [d-neomenthol] | cooling threshold [2]: about 25,000 ppb
32800 nM | CC(C)[C@@H]1CC[C@@H](C)C[C@H]1OC(=O)[C@@H](NC(=O)[C@H](C)N)c1ccccc1 [#22] | 
2070 nM | CC(C)[C@@H]1CC[C@@H](C)C[C@H]1OC(=O)CC(NCc1ccccn1)c1ccccc1 (some centres unmarked) [#16] | 
2950 nM | CC(C)[C@@H]1CC[C@@H](C)C[C@@H]1OC(=O)C[C@@H](NC(=O)CN)c1ccccc1 [#18] | 
36.8 nM | CC(C)[C@@H]1CC[C@@H](C)C[C@H]1OC(=O)C[C@@H](NC(=O)[C@@H](C)N)c1ccccc1 [#10] | 
4280 nM | CC(C)[C@@H]1CC[C@@H](C)C[C@H]1OC(=O)C(Cc1ccccc1)NC(=O)CN (some centres unmarked) [#19] | 
 | CC(C)[C@@H]1CC[C@@H](C)C[C@@H]1O [Sample 1-neomenthol, 1-neomenthol] | cooling threshold [2]: about 3,000 ppb
8.08 nM | CC(C)[C@@H]1CC[C@@H](C)C[C@H]1C(=O)OC[C@@H](NC(=O)[C@@H](C)N)c1ccccc1.Cl [#1] | Cooling Rating (0-90) of Dentifrice ([3]; Time 0 min, wintergreen flavor, 0 = no cooling, 90 = cold as ice): 33.57; Cooling Rating (0-90) of Dentifrice ([3]; Time 15 min): 32.71; Cooling Rating (0-90) of Dentifrice ([3]; Time 30 min): 26.43; Cooling Rating (0-90) of Dentifrice ([3]; Time 60 min): 35.71; Cooling Rating (0-90) of Dentifrice ([3]; Time 120 min): 40.00; Cooling Rating (0-90) of Dentifrice ([3]; Time 180 min): 36.43; Cooling Rating (0-90) of Dentifrice ([3]; Time 240 min): 34.29; Cooling Rating (0-90) of Dentifrice ([3]; Time 300 min): 30.71; Cooling Rating (0-90) of Dentifrice ([3]; Time 360 min): 30.71; Cooling Rating (0-90) of Dentifrice ([3]; Time 420 min): 23.57; Cooling Rating (0-90) of Dentifrice ([3]; Time 480 min): 20.71
62 nM | CC(C)[C@@H]1CC[C@@H](C)C[C@H]1OC(=O)C[C@@H](NC(=O)CN)c1ccccc1 [#2] | 
8000 nM | CC1CCC(C(C)C)C(OC(=O)CC(N)c2ccccc2)C1 (centres unmarked) [#7] | 
 | CC(C)[C@@H]1CC[C@@H](C)C[C@H]1O [L-menthol] | cooling threshold [2]: about 800 ppb
23200 nM | CC(C)[C@@H]1CC[C@@H](C)C[C@H]1C(=O)OC[C@@H](NC(=O)CNC(=O)OC(C)(C)C)c1ccccc1 [#3] | 
64 nM | CC(C)[C@@H]1CC[C@@H](C)C[C@H]1C(=O)OC[C@@H](NC(=O)CN)c1ccccc1 [#4] | 
343 nM | CC(C)[C@@H]1CC[C@@H](C)C[C@H]1C(=O)OC[C@@H](NC(=O)[C@H](C)N)c1ccccc1 [#11] | 
34100 nM | CC(C)[C@@H]1CC[C@@H](C)C[C@H]1OC(=O)[C@@H](NC(=O)CN)c1ccccc1 [#23] | 
60200 nM | CC1CCC(C(C)C)C(OC(=O)C(N)c2ccccc2)C1 (centres unmarked) [#5] | 
 | CC(C)[C@@H]1CC[C@@H](C)C[C@H]1OC(=O)C[C@@H](NC(=O)OC(C)(C)C)c1ccccc1 [#6] | TRPM8 EC 50 Value (human TRPM8 [4]): Too high to measure
914 nM | CC(C)[C@@H]1CC[C@@H](C)C[C@H]1OC(=O)C[C@@H](NC(=O)[C@H](C)N)c1ccccc1 [#14] | 
4960 nM | CC(C)[C@H]1CC[C@@H](C)C[C@@H]1OC(=O)C[C@@H](NC(=O)CN)c1ccccc1 [#21] | 
 | CC(C)[C@@H]1CC[C@@H](C)C[C@H]1OC(=O)C[C@@H](NC(=O)CNC(=O)OC(C)(C)C)c1ccccc1 [#8] | TRPM8 EC 50 Value (human TRPM8 [4]): Too high to measure
590 nM | CC(C)[C@@H]1CC[C@@H](C)C[C@H]1C(=O)OC[C@@H](O)c1ccccc1 [#12] | 
139000 nM | CC(C)[C@@H]1CC[C@@H](C)C[C@H]1C(=O)OC[C@@H](OC(=O)[C@@H]1C[C@H](C)CC[C@H]1C(C)C)c1ccccc1 [#26] | 
9500 nM | CC(C)[C@@H]1CC[C@@H](C)C[C@H]1OC(=O)CCCCCN [#25] | 
4470 nM | CC(C)[C@@H]1CC[C@@H](C)C[C@H]1C(=O)OC[C@@H](OC(=O)CNC(=O)OC(C)(C)C)c1ccccc1 [#20] | 
13 nM | CC(C)[C@@H]1CC[C@@H](C)C[C@H]1C(=O)OC[C@@H](OC(=O)CN)c1ccccc1 [#9] | 
145000 nM | CC(C)[C@@H]1CC[C@@H](C)C[C@H]1COC(=O)C(NC(=O)CN)c1ccccc1 (some centres unmarked) [#27] | 
